Results on 14 compounds are retold here after ChEMBL document CHEMBL4673307, “Pyrrolo[2,3-b]pyridine-3-one derivatives as novel fibroblast growth factor receptor 4 inhibitors for the treatment of hepatocellular carcinoma” (Bioorg Med Chem, 2021).

Bounds are passed on as bounds.

One data set deals with Hep 3B2. The data set is described as follows: Antiproliferative activity against human Hep3B cells assessed as reduction in cell viability incubated for 72 hrs by Cell Titer-Glo assay.
Data set [1] concerns the target Fibroblast growth factor receptor 4 (Homo sapiens, UniProt P22455). The data set is described as follows: Inhibition of human FGFR4 using poly (Glu, Tyr)4:1 as substrate incubated for 20 mins followed by [33P]-ATP addition and measured after 120 mins by radiometric hotspot assay.
A short description of data set [2]: Metabolic stability in human liver microsomes assessed as half life at 1 uM incubated for 60 mins by LC-MS/MS analysis. The class given is ADME, Microsome.
Data set [3] is described as follows: Metabolic stability in human liver microsomes assessed as intrinsic clearance at 1 uM incubated for 60 mins by LC-MS/MS analysis. The following applies: read-out: CLH. The class given is ADME, Microsome.
Data set [4] can be described thus: Tmax in Sprague-Dawley rat at 1 mg/kg, iv measured upto 24 hrs by LC-MS/MS analysis. The class given is ADME, organism-based. To be noted: in vivo.
The nature of data set [5]: Tmax in Sprague-Dawley rat at 10 mg/kg, po measured upto 24 hrs by LC-MS/MS analysis. The class given is ADME, organism-based. The following applies: in vivo.
Data set [6] in a line: Half life in Sprague-Dawley rat at 1 mg/kg, iv measured upto 24 hrs by LC-MS/MS analysis. The class given is ADME, organism-based. To be noted: in vivo.
Data set [7] in a line: MRTlast in Sprague-Dawley rat at 10 mg/kg, po measured upto 24 hrs by LC-MS/MS analysis. The class given is ADME, organism-based. To be noted: in vivo.
Data set [8] in a line: Cmax in Sprague-Dawley rat at 10 mg/kg, po measured upto 24 hrs by LC-MS/MS analysis. The class given is ADME, organism-based. On the set-up: route oral, dose 10 mg/kg, time <=24. The following applies: in vivo.
Data set [9] can be described thus: MRTlast in Sprague-Dawley rat at 1 mg/kg, iv measured upto 24 hrs by LC-MS/MS analysis. The class given is ADME, organism-based. The following applies: in vivo.
Data set [10] can be described thus: AUClast in Sprague-Dawley rat at 10 mg/kg, po measured upto 24 hrs by LC-MS/MS analysis. The class given is ADME, organism-based. More on the design: route oral, dose 10 mg/kg, time <=24. The following applies: in vivo.
The nature of data set [11]: Oral bioavailability in Sprague-Dawley rat at 10 mg/kg measured upto 24 hrs by LC-MS/MS analysis. The class given is ADME, organism-based. The following applies: in vivo.
Data set [12] is described as follows: AUClast in Sprague-Dawley rat at 1 mg/kg, iv measured upto 24 hrs by LC-MS/MS analysis. The class given is ADME, organism-based. More on the design: route intravenous, dose 1 mg/kg, time <=24. To be noted: in vivo.
The nature of data set [13]: Half life in Sprague-Dawley rat at 10 mg/kg, po measured upto 24 hrs by LC-MS/MS analysis. The class given is ADME, organism-based. The following applies: in vivo.
Data set [14] is described as follows: Cmax in Sprague-Dawley rat at 1 mg/kg, iv measured upto 24 hrs by LC-MS/MS analysis. The class given is ADME, organism-based. On the set-up: route intravenous, dose 1 mg/kg, time <=24. The following applies: in vivo.

Fibroblast growth factor receptor 4, sequence (P22455 whole entry): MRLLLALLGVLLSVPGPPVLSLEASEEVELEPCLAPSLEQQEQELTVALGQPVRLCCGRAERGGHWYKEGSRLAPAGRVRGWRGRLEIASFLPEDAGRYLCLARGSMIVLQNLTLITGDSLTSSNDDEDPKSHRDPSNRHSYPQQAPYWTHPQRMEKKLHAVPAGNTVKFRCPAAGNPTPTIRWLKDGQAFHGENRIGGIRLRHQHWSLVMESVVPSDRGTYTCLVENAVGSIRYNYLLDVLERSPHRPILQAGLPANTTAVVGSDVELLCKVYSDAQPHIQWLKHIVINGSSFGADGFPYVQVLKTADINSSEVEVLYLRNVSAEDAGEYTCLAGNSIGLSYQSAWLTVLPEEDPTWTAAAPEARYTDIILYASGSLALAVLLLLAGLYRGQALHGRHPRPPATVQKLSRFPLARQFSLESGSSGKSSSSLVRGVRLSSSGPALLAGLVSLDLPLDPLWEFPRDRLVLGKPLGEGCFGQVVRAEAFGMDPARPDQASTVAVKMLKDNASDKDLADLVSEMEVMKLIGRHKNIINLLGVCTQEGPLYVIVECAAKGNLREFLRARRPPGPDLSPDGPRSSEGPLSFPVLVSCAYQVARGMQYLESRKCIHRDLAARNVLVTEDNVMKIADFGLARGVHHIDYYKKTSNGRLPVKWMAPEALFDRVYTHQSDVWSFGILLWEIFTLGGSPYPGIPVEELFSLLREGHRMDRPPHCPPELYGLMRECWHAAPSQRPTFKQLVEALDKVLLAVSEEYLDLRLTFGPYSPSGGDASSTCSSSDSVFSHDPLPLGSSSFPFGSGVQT

On to `CC#CC(=O)Nc1ccccc1Nc1ccc2c(C(=O)c3cc(OC)cc(OC)c3)c[nH]c2n1`, for which, in the data set with Hep 3B2, the IC50 stood at 602 nM.

Consider `C=CC(=O)N1CCN(CCn2cc(-c3cc(OC)cc(OC)c3)c3cnc(NC)nc32)CC1`, for which the figures for the IC50 (in the data set on Hep 3B2; in data set [1]) were greater than 10000 nM and greater than 1000 nM, respectively.

As for `C=CC(=O)N1CCN(CCCn2cc(-c3cc(OC)cc(OC)c3)c3ccc(NC)nc32)CC1`, the concentration for half-maximal inhibition (IC50) with Hep 3B2 is greater than 10000 nM.

`C=CC(=O)N1CCN(CCn2cc(-c3ccc(OC)c(OC)c3)c3cnc(NC)nc32)CC1`: the IC50 was greater than 10000 nM with Hep 3B2 and greater than 1000 nM in [1].

Take `C=CC(=O)Nc1ccccc1Nc1ncc2c(-c3cc(OC)cc(OC)c3)n[nH]c2n1`: the IC50 in the data set on Hep 3B2 turned out to be 4090 nM.

As to `C=CC(=O)NC1CCCCC1Nc1ccc2c(C(=O)c3cc(OC)cc(OC)c3)c[nH]c2n1` (centres undefined), the IC50 in the data set with Hep 3B2 stood at 258 nM.

For `C=CS(=O)(=O)N1CCN(CCCn2cc(-c3cc(OC)cc(OC)c3)c3cnc(NC)nc32)CC1`, the IC50 in the data set with Hep 3B2 is greater than 10000 nM; in data set [1], greater than 1000 nM.

`C=CC(=O)Nc1cccc(C)c1Nc1ccc2c(C(=O)c3cc(OC)cc(OC)c3)c[nH]c2n1`: the IC50 with Hep 3B2 came to 438 nM.

As to `C=CC(=O)Nc1cccc(C)c1Nc1ncc2cc(-c3c(Cl)c(OC)cc(OC)c3Cl)ccc2n1`, in [2], the half-life at 1 µM was 46.7 min. Also, the IC50 in the data set with Hep 3B2 came to 288 nM. In addition, the microsomal CLint at 1 µM in [3] turned out to be 74.1 µL/min/mg.

Consider `C=CS(=O)(=O)Nc1ccccc1Nc1ccc2c(C(=O)c3cc(OC)cc(OC)c3)c[nH]c2n1`, for which the half-inhibitory concentration (IC50) with Hep 3B2 was 1030 nM.

In the case of `C=CC(=O)Nc1ccccc1Nc1ccc2c(C(=O)c3cc(OC)cc(OC)c3)c[nH]c2n1`, the figures for the Tmax in [4] and in [5] were 4.98 min and 60 min, respectively. For the same compound, the half-life was 51.6 min in [6] and 463 min in data set [13]. Moreover, the MRT last at 24 h is 227 min in data set [7] and 46.2 min in data set [9]. In data set [2], the half-life at 1 µM stood at 62 min. Further, the Cmax in data set [8] stood at 33.9 ng/mL; in data set [14], 361 ng/mL. For the same compound, the results for the AUC(0-t) at 24 h in data set [10] and in [12] were 206 ng·h/mL and 277 ng·h/mL, respectively. In [11], the bioavailability stood at 6.65%. The microsomal CLint at 1 µM in [3] was 55.9 µL/min/mg.

As to `CC#CC(=O)N1CCN(CCCn2cc(-c3cc(OC)cc(OC)c3)c3cnc(NC)nc32)CC1`, the IC50 was greater than 10000 nM with Hep 3B2 and greater than 1000 nM in data set [1].

In the case of `CNc1ncc2c(-c3cc(OC)cc(OC)c3)noc2n1`, the half-maximal inhibitory concentration (IC50) in the data set on Hep 3B2 is greater than 10000 nM; in data set [1], greater than 1000 nM.

Regarding `C=CC(=O)N1CCN(CCn2nc(-c3cc(OC)cc(OC)c3)c3cnc(NC)nc32)CC1`, the 50% inhibitory concentration (IC50) in the data set with Hep 3B2 was greater than 10000 nM; in [1] it was greater than 1000 nM.
